Measured values: patent publication US20090023773A1, “COMPOSITIONS AND METHODS FOR MODULATING GATED ION CHANNELS” (PainCeptor Pharma Corporation, priority 2007, published 2009)

Assays:
[1] = test system: chemically-induced spontaneous pain evoked by intraplantar injection of formalin; experiment: Formalin test, model of acute tonic pain (Example 7); assay type: in vivo; details: rat, 1 min prior to formalin
Protocol: Male Sprague-Dawley rats are housed together in groups of three animals under standard conditions with unrestricted access to food and water. All experiments are conducted according to the ethical guidelines for investigations of experimental pain in conscious animals (Zimmerman, 1983).
Assessment of formalin-induced flinching behavior in normal, uninjured rats (body weight 200-300 g) is made after formalin (2.5% in saline, 50-100 μl, s.c.) is injected into the plantar surface of the hindpaw using a 27 G needle. Rats are pretreated with test compounds either administered intravenously (IV), by subcutaneous injection (SC) or by orally (PO).
Nociceptive behavior is determined manually every 5 min by measuring the amount of time spent in each of four behavioral categories: 0, treatment of the injected hindpaw is indistinguishable from that of the contralateral paw; 1, the injected paw has little or no weight placed on it; 2, the injected paw is elevated and is not in contact with any surface; 3, the injected paw is licked, bitten, or shaken. A weighted nociceptive score, ranging from 0 to 3 is calculated by multiplying the time spent in each category by the category weight, summing these products, and dividing by the total time for each 5 min block of time. (Coderre et al., Pain 1993; 54: 43). On the basis of the resulting response patterns, […] of nociceptive behavior are identified and scored: first phase (P1; 0-5 min), interphase (Int; 6-15 min), second phase (P2; […]), phase 2A (P2A; 16-40 min) and phase 2B (P2B; 41-60 min).
Statistical analysis is performed using the Prism™ 4.01 software package (GraphPad, San Diego, Calif., USA). The difference in response levels between treatment groups and control vehicle group is analyzed using an ANOVA followed by Bonferroni's method for post-hoc pair-wise comparisons. A p value <0.05 is considered to be significant.

[2] = target: T1, hASIC2a/3 steady state (window) current (Homo sapiens, UniProt Q16515+Q9UHC3); experiment: ASIC2a/3 assay, automated two-electrode voltage clamp in oocytes microinjected with hASIC2a and hASIC3 (Example 2); assay type: cell-based; details: 50 μM, perfusion at pH 6.5; FIG. 8
T1 construct: expressed in transfected cells; host or cells: Xenopus laevis oocytes, cRNA microinjection, 1:1 mass ratio
T1 sequence (Q16515 1-512): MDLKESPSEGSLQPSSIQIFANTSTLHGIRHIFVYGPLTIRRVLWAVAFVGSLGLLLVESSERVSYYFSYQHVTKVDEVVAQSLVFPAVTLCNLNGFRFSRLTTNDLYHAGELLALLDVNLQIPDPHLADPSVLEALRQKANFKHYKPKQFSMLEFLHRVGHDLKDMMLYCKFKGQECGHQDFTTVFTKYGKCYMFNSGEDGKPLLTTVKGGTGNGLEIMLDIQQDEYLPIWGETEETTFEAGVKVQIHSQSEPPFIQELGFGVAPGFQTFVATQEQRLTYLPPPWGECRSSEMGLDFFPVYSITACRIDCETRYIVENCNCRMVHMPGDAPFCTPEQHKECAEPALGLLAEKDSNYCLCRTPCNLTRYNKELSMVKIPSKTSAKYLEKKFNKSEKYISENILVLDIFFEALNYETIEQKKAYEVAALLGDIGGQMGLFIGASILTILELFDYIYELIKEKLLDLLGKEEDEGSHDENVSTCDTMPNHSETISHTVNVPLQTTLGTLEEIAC
T1 sequence (Q9UHC3 1-531): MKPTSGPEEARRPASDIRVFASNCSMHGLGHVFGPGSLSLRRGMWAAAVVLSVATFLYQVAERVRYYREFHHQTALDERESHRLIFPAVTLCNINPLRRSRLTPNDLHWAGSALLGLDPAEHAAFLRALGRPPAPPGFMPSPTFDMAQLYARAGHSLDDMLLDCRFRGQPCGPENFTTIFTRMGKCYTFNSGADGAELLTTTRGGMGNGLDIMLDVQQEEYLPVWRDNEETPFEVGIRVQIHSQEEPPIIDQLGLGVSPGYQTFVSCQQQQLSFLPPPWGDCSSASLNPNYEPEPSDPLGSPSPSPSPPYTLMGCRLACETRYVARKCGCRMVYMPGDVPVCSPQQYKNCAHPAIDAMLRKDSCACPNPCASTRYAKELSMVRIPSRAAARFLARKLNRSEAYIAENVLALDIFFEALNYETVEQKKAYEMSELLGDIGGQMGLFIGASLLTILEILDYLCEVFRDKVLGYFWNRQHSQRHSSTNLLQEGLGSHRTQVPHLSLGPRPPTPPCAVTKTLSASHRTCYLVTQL
Protocol: The ASIC2a/3 assay involves methods and procedures commonly in use and have been extensively described in the literature.
Briefly, a mature female frog is placed on its back after anesthesia, 20 min in 0.1% (w/v) Tricaine (Sigma), and incision is made on the lower abdomen through the skin, muscle and into the peritoneum. Lobes of ovaries are pulled out with forceps, cut and placed in a solution of Ca^2+-free Barth's with 1% (w/v) collagenase Type I (Sigma) added, for 90 minutes. The dissociated eggs are then washed with complete Barth's, supplementd with […] Gentamycin.
Plasmids containing cDNA for ASIC2a+ASIC3 are linearized and used for cRNA synthesis. The synthesis is done according to the protocol insert of the synthesis kit (e.g. Message Machine, Ambion). The final resuspension of the cRNA is made to provide a concentration of 1 μg/μL. The cDNA's for hASIC2a and hASIC3 are mixed with a 1:1 mass ratio and injected at […] per oocyte. Micro-injected oocytes start expressing hASIC2a3 specific current after 24 h.
The oocytes micro-injected with hASIC2a and hASIC3 cRNA's are placed in the recording chambers of the automated rig and then impaled with the voltage and current micro-electrodes. […] The voltage and current for each oocyte is recorded in one pass during both applications for later analysis. […]

inhibition of the ASIC 2a/3 current [2] | Structure (SMILES) | pain intensity as evaluated by the licking behavior ([1]; SC, 2.5, 7.5, 25 and 75 mg/kg, FIG. 5A) | ED50 ([1]; SC, FIG. 5B, read-out: ED50 (number of licking and biting episodes in phase IIa of the formalin test))
– | Cc1cc(OC2CCN(Cc3ccccc3)CC2)c2cc(O)ccc2n1 [Compound 13, 4-(1-benzylpiperidin-4-yloxy)-2-methylquinolin-6-ol] | dose-dependent reduction | ~6 mg/kg
specific inhibition | Cc1ccc(-c2nc(Nc3ccc(C(=O)O)cc3)c3cc(Cl)ccc3n2)cc1 [Compound 124] | – | –
